PMC3842960, “Natural Stilbenoids Isolated from Grapevine Exhibiting Inhibitory Effects against HIV-1 Integrase and Eukaryote MOS1 Transposase In Vitro Activities” (PLoS ONE, 2013)

Tests used:
Mos1 transposase (MOS1) = biological target: T1, Mos1 transposase (MOS1) (Drosophila mauritiana, UniProt Q7JQ07); experiment: MOS1 in vitro ITR integration assay; type: biochemical, D. mauritiana; conditions: for inhibition of the integration step: 25 and 10 µM, molecules added after formation of MOS1-ITR complexes
T1 construct: involving the full-length Mos1 transposase (MOS1) was recently solved; made in house
Method: These assays were performed using pre-cleaved 3′ITRs (PC-ITR), i.e. ITRs in the configuration expected after excision. […]. Prior to annealing, the transferred strand (70-TS-PC) was 5′-end labelled using T4 polynucleotide kinase (Promega) and γ-^32P-ATP following the manufacturer's instructions. Oligonucleotides were provided by Eurofins MWG Biotech (Germany) or Eurogentec (Belgium). Reaction mixtures containing 10 mM Tris-HCl (pH 9), 50 mM NaCl, 1 mM DTT, 5% glycerol, 100 ng BSA, 100 nM of labelled PC-ITR and 100 nM MBP-MOS1 in a final volume of 20 µl were incubated at 30°C for 30 min. The pBC plasmid (which contained the cat gene, a hot-spot for Mos1 insertion) was then added to 30 ng/µL along with 5 mM MgCl2. Molecules (25 or 10 µM, as specified) or DMSO (2%) were added to the reaction mixtures along with the target DNA to estimate their effect on integration. Reactions were carried out for 3 hours at 30°C. 0.1 mg/ml proteinase K and 0.1% SDS were added to stop the reaction. DNA products were purified by phenol-chloroform extraction and ethanol precipitated using standard techniques. DNA products were resuspended in DNA loading buffer, then separated onto a 1% agarose gel in 1X TAE (Tris Acetate EDTA) buffer. The gel was dried onto a nitrocellulose membrane (Hybond N+, GE Healthcare), scanned using a Storm, and analysed with ImageQuant software. Signals were quantified using ImageQuant software. Efficiency of integration was calculated as the intensity of the integration signal divided by the intensity of free target signal plus integration signal. Each condition was tested at least twice.
The assay used for this step is similar to the HIV-1 IN concerted integration. Briefly, pre-cleaved labelled ITRs are used to form the integration complex. A super-coiled plasmid is used as target DNA. Integration events give a linear labelled plasmid, which can be detected. In these tests, the molecules are added after formation of MOS1-ITR complexes, along with a target plasmid to solely examine the integration inhibition. […] Controls correspond to assays performed without molecule but with DMSO. Reactions were performed at least twice for each selected molecule (leachianol G, leachianol F, quadrangularin A, hopeaphenol, vitisin B and pallidol) and the excision activity is shown in figure 8B .

MOS1 = biological target: T2, MOS1 (Drosophila mauritiana, UniProt Q7JQ07); experiment: MOS1 in vitro activities, overall statements of the discussion; type: biochemical, D. mauritiana; conditions: for activity on MOS1: in vitro assays of MOS1 activities, discussion
T2 construct: involving the full-length Mos1 transposase (MOS1) was recently solved; made in house
Method: In vitro transposition reactions were performed using pBC-3T3 as both the donor DNA and the target, as previously described. Briefly, the basic transposition reaction mixtures contained 10 mM Tris-HCl (pH 9), 50 mM NaCl, 20 mM MgCl2, 0.5 mM EDTA, 5% glycerol, 5 ng/ml BSA, 600 ng pBC-3T3, and 80 nM purified MBP-MOS1 (added last) in a volume of 20 µl. Inhibitors (25 or 10 µM, as specified) or DMSO (2%) were added to the reaction mixtures before the transposase. The reactions were allowed to proceed for 30 min at 30°C. After phenol-chloroform extraction and ethanol precipitation, 10% of the reaction mixture was transformed in electro-competent JM109 E. coli (2 mm cuvette, 1.5 kV in a MicroPulser™BioRad). Appropriate dilutions of each reaction mixture were plated on LB-tetracycline (12.5 µg/ml) agar and LB-chloramphenicol (80 µg/ml) agar to score the transposition rate. The transposition rate was the number of Tet^R colonies divided by the number of Chloram^R plus Tet^R colonies. Each condition was done at least three times in independent experiments.
Basic excision reaction mixtures contained 10 mM Tris-HCl (pH 9), 50 mM NaCl, 20 mM MgCl2, 0.5 mM EDTA, 0.5 mM DTT, 100 ng BSA, 600 ng of super-coiled pBC-3T3, and 80 nM MBP-MOS1 (added last) in a volume of 20 µl. Molecules (25 or 10 µM, as specified) or DMSO (2%) were added to the reaction mixtures before the transposase. The reactions were allowed to proceed at 30°C for 30 min before 2 µl of stop solution (loading buffer) were added. The reaction mixtures were then incubated at 65°C for 10 min. Each reaction was analysed by overnight electrophoresis at 2.7 V/cm on a TAE-buffered 1% agarose gel with ethidium bromide (0.3 mg/ml). After electrophoresis, the gel was photographed on a transilluminator. ImageGauge 4.22 software (Fujifilm) was used to quantify the bands. Each condition was tested at least twice.
These assays were performed using pre-cleaved 3′ITRs (PC-ITR), i.e. ITRs in the configuration expected after excision. Double-strand ITRs were obtained by annealing equimolar amounts of 70-NTS-PN (5′[…]3′) and 70-TS-PC (5′[…]3′) single-strand oligonucleotides. Prior to annealing, the transferred strand (70-TS-PC) was 5′-end labelled using T4 polynucleotide kinase (Promega) and γ-^32P-ATP following the manufacturer's instructions. Oligonucleotides were provided by Eurofins MWG Biotech (Germany) or Eurogentec (Belgium). Reaction mixtures containing 10 mM Tris-HCl (pH 9), 50 mM NaCl, 1 mM DTT, 5% glycerol, 100 ng BSA, 100 nM of labelled PC-ITR and 100 nM MBP-MOS1 in a final volume of 20 µl were incubated at 30°C for 30 min. The pBC plasmid (which contained the cat gene, a hot-spot for Mos1 insertion) was then added to 30 ng/µL along with 5 mM MgCl2. Molecules (25 or 10 µM, as specified) or DMSO (2%) were added to the reaction mixtures along with the target DNA to estimate their effect on integration. Reactions were carried out for 3 hours at 30°C. 0.1 mg/ml proteinase K and 0.1% SDS were added to stop the reaction. DNA products were purified by phenol-chloroform extraction and ethanol precipitated using standard techniques. DNA products were resuspended in DNA loading buffer, then separated onto a 1% agarose gel in 1X TAE (Tris Acetate EDTA) buffer. The gel was dried onto a nitrocellulose membrane (Hybond N+, GE Healthcare), scanned using a Storm, and analysed with ImageQuant software. Signals were quantified using ImageQuant software. Efficiency of integration was calculated as the intensity of the integration signal divided by the intensity of free target signal plus integration signal. Each condition was tested at least twice.
All molecules were also tested in in vitro assays reproducing integration and excision reactions catalysed by MOS1. […] In contrast, E-resveratrol and E-ε-viniferin glucoside, which act more specifically on HIV-1 3′processing reaction, and E-piceid and E-pterostilbene, which is more efficient on the integration reaction, were not active on MOS1.

T2 sequence (Q7JQ07 whole entry): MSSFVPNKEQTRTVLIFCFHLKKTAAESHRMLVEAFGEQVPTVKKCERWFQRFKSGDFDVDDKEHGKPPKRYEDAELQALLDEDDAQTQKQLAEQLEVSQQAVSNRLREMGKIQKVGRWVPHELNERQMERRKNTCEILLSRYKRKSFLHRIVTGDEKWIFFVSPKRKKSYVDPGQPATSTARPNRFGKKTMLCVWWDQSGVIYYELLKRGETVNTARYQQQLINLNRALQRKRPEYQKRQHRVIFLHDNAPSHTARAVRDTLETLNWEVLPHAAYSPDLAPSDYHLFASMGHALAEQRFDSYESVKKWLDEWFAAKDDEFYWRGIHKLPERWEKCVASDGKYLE
T1 sequence (Q7JQ07 whole entry): as above

SMILES | IC50 (Mos1 transposase (MOS1)) [µM] | inhibition of the integration step (Mos1 transposase (MOS1)) | activity on MOS1 (MOS1) | IC50 (MOS1; summary of the discussion) [µM]
Oc1ccc([C@@H]2c3c(O)cc(O)cc3[C@H]3c4c(cc(O)cc4C2C2c4cc(O)cc5c4[C@H](c4cc(O)cc(O)c4[C@H]2c2ccc(O)cc2)[C@@H](c2ccc(O)cc2)O5)O[C@@H]3c2ccc(O)cc2)cc1 (stereo partly shown) [hopeaphenol] | ~6.5 | significantly inhibited | selectively active on MOS1 | 6 to 8
Oc1ccc([C@@H]2c3c(O)cc(O)cc3[C@H]3[C@H](c4ccc(O)cc4)c4c(O)cc(O)cc4[C@@H]23)cc1 [pallidol] | ~10 | significantly inhibited | also active against MOS1 activities | –
